Experimental data from patent publication US20260284018A1, “DUAL INHIBITORS OF DYRK1A AND 5-HT2 FOR TREATING A BRAIN DISORDER” (THE REGENTS OF THE UNIVERSITY OF CALIFORNIA, priority 2023, published 2026).

Assays:
[1] = molecular target: T1, KIT (Homo sapiens, UniProt P10721); experiment: KINOMEscan scanEDGE; assay type: binding; conditions: read-out: Percent Control
T1 construct: purchased Eurofins DiscoverX
Description: (§1) Kinome Scan. Compound HTW_A_8 fumarate was screened against 97 kinases at a single concentration of 10 μM at Eurofins DiscoverX using their KINOMEscan™ scanEDGE assay. The results are reported as the % activity relative to DMSO control, where lower values indicate higher affinity. See Table 1 for the full kinome profile.

[2] = molecular target: T2, CSNK1D (Homo sapiens, UniProt P48730); experiment: KINOMEscan scanEDGE; assay type: binding; conditions: read-out: Percent Control
T2 construct: purchased Eurofins DiscoverX
Description: as §1

[3] = molecular target: T3, KIT(D816V) (Homo sapiens, UniProt P10721, D816V); experiment: KINOMEscan scanEDGE; assay type: binding; conditions: read-out: Percent Control
T3 construct: purchased Eurofins DiscoverX
Description: as §1

[4] = molecular target: T4, ABL1-nonphosphorylated (Homo sapiens, UniProt P00519); experiment: KINOMEscan scanEDGE; assay type: binding; conditions: read-out: Percent Control
T4 construct: purchased Eurofins DiscoverX
Description: as §1

[5] = molecular target: T5, PDGFRA (Homo sapiens, UniProt P16234); experiment: KINOMEscan scanEDGE; assay type: binding; conditions: read-out: Percent Control
T5 construct: purchased Eurofins DiscoverX (KINOMEscan scanEDGE service)
Description: as §1

[6] = molecular target: T6, EGFR (Homo sapiens, UniProt P00533); experiment: KINOMEscan scanEDGE; assay type: binding; conditions: read-out: Percent Control
T6 construct: purchased Eurofins DiscoverX
Description: as §1

[7] = molecular target: T7, PAK1 (Homo sapiens, UniProt Q13153); experiment: KINOMEscan scanEDGE; assay type: binding; conditions: read-out: Percent Control
T7 construct: purchased Eurofins DiscoverX (KINOMEscan scanEDGE service)
Description: as §1

[8] = molecular target: T8, TSSK1B (Homo sapiens, UniProt Q9BXA7); experiment: KINOMEscan scanEDGE; assay type: binding; conditions: read-out: Percent Control
T8 construct: purchased Eurofins DiscoverX KINOMEscan scanEDGE
Description: as §1

[9] = molecular target: T9, PAK4 (Homo sapiens, UniProt O96013); experiment: KINOMEscan scanEDGE; assay type: binding; conditions: read-out: Percent Control
T9 construct: purchased Eurofins DiscoverX (KINOMEscan scanEDGE service)
Description: as §1

[10] = molecular target: T10, JNK2 (Homo sapiens, UniProt P45984); experiment: KINOMEscan scanEDGE; assay type: binding; conditions: read-out: Percent Control
T10 construct: purchased Eurofins DiscoverX
Description: as §1

[11] = molecular target: T11, ERBB4 (Homo sapiens, UniProt Q15303); experiment: KINOMEscan scanEDGE; assay type: binding; conditions: read-out: Percent Control
T11 construct: purchased Eurofins DiscoverX
Description: as §1

[12] = molecular target: T12, TIE2 (Homo sapiens, UniProt Q02763); conditions: 10 μM; cited from earlier work
T12 construct: purchased Eurofins DiscoverX KINOMEscan scanEDGE

[13] = molecular target: T13, PCTK1 (Homo sapiens, UniProt Q00536); conditions: 10 μM; cited from earlier work
T13 construct: purchased Eurofins DiscoverX (KINOMEscan scanEDGE service)

[14] = molecular target: T14, BMPR2 (Homo sapiens, UniProt Q13873); conditions: 10 μM; cited from earlier work
T14 construct: purchased Eurofins DiscoverX

[15] = molecular target: T15, JNK3 (Homo sapiens, UniProt P53779); conditions: 10 μM; cited from earlier work
T15 construct: purchased Eurofins DiscoverX

[16] = molecular target: T11, ERBB4; conditions: 10 μM; cited from earlier work
[17] = molecular target: T16, PRKCE (Homo sapiens, UniProt Q02156); conditions: 10 μM; cited from earlier work
T16 construct: purchased Eurofins DiscoverX KINOMEscan scanEDGE

[18] = molecular target: T17, MEK2 (Homo sapiens, UniProt P36507); conditions: 10 μM; cited from earlier work
T17 construct: purchased Eurofins DiscoverX (KINOMEscan scanEDGE service)

[19] = molecular target: T18, FLT3 (Homo sapiens, UniProt P36888); conditions: 10 μM; cited from earlier work
T18 construct: purchased Eurofins DiscoverX

[20] = molecular target: T19, PLK4 (Homo sapiens, UniProt O00444); conditions: 10 μM; cited from earlier work
T19 construct: purchased Eurofins DiscoverX KINOMEscan scanEDGE

[21] = molecular target: T20, PKAC-alpha (Homo sapiens, UniProt P17612); conditions: 10 μM; cited from earlier work
T20 construct: purchased Eurofins DiscoverX KINOMEscan scanEDGE

[22] = molecular target: T21, ZAP70 (Homo sapiens, UniProt P43403); conditions: 10 μM; cited from earlier work
T21 construct: purchased Eurofins DiscoverX KINOMEscan scanEDGE

[23] = molecular target: T22, MKNK2 (Homo sapiens, UniProt Q9HBH9); conditions: 10 μM; cited from earlier work
T22 construct: purchased Eurofins DiscoverX (KINOMEscan scanEDGE service)

[24] = molecular target: T23, CSF1R (Homo sapiens, UniProt P07333); conditions: 10 μM; cited from earlier work
T23 construct: purchased Eurofins DiscoverX

[25] = molecular target: T24, GSK3B (Homo sapiens, UniProt P49841); conditions: 10 μM; cited from earlier work
T24 construct: purchased Eurofins DiscoverX

[26] = molecular target: T25, CDK7 (Homo sapiens, UniProt P50613); conditions: 10 μM; cited from earlier work
T25 construct: purchased Eurofins DiscoverX

[27] = molecular target: T26, ADCK3 (Homo sapiens, UniProt Q8NI60); conditions: 10 μM; cited from earlier work
T26 construct: purchased Eurofins DiscoverX

[28] = molecular target: T9, PAK4; conditions: 10 μM; cited from earlier work
[29] = molecular target: T27, PIM1 (Homo sapiens, UniProt P11309); conditions: 10 μM; cited from earlier work
T27 construct: purchased Eurofins DiscoverX (KINOMEscan scanEDGE service)

[30] = molecular target: T28, VEGFR2 (Homo sapiens, UniProt P35968); conditions: 10 μM; cited from earlier work
T28 construct: purchased Eurofins DiscoverX KINOMEscan scanEDGE

[31] = molecular target: T29, JNK1 (Homo sapiens, UniProt P45983); conditions: 10 μM; cited from earlier work
T29 construct: purchased Eurofins DiscoverX

[32] = molecular target: T30, FGFR3 (Homo sapiens, UniProt P22607); conditions: 10 μM; cited from earlier work
T30 construct: purchased Eurofins DiscoverX

[33] = molecular target: T8, TSSK1B; conditions: 10 μM; cited from earlier work
[34] = molecular target: T31, ERK1 (Homo sapiens, UniProt P27361); conditions: 10 μM; cited from earlier work
T31 construct: purchased Eurofins DiscoverX

[35] = molecular target: T32, PIK3CG (Homo sapiens, UniProt P48736); conditions: 10 μM; cited from earlier work
T32 construct: purchased Eurofins DiscoverX (KINOMEscan scanEDGE service)

[36] = molecular target: T33, CDK11 (Homo sapiens, UniProt Q9BWU1); conditions: 10 μM; cited from earlier work
T33 construct: purchased Eurofins DiscoverX

[37] = molecular target: T5, PDGFRA; conditions: 10 μM; cited from earlier work
[38] = molecular target: T34, AURKA (Homo sapiens, UniProt O14965); conditions: 10 μM; cited from earlier work
T34 construct: purchased Eurofins DiscoverX

[39] = molecular target: T35, EGFR(L858R) (Homo sapiens, UniProt P00533, L858R); conditions: 10 μM; cited from earlier work
T35 construct: purchased Eurofins DiscoverX

T5 sequence (P16234 24-1089): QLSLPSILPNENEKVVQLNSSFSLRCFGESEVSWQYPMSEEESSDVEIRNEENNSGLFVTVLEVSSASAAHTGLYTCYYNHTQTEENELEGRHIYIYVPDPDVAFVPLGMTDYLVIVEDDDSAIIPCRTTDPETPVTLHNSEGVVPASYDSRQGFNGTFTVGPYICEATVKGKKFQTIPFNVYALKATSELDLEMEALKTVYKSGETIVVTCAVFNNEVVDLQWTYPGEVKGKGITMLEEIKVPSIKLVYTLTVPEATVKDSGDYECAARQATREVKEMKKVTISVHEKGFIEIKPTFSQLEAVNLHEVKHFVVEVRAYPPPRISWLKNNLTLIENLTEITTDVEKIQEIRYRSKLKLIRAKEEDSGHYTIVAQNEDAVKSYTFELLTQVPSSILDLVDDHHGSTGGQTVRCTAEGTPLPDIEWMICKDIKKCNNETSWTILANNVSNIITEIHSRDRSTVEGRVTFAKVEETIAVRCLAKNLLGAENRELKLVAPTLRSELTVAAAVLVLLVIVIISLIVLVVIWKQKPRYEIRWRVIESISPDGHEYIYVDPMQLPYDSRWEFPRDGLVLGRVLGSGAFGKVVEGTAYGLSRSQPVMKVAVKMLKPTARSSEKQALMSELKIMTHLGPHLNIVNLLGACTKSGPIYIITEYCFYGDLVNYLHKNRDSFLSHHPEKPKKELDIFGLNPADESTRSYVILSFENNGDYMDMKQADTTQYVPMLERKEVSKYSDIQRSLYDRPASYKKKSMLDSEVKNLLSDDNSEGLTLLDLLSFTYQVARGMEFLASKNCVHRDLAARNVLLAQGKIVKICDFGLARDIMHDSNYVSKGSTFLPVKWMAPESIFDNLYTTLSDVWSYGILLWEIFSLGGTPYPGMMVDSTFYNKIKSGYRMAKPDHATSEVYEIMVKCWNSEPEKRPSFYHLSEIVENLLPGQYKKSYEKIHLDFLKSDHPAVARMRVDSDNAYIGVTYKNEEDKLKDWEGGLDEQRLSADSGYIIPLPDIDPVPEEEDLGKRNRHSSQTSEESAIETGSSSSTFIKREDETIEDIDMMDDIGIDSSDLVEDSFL
T9 sequence (O96013 whole entry): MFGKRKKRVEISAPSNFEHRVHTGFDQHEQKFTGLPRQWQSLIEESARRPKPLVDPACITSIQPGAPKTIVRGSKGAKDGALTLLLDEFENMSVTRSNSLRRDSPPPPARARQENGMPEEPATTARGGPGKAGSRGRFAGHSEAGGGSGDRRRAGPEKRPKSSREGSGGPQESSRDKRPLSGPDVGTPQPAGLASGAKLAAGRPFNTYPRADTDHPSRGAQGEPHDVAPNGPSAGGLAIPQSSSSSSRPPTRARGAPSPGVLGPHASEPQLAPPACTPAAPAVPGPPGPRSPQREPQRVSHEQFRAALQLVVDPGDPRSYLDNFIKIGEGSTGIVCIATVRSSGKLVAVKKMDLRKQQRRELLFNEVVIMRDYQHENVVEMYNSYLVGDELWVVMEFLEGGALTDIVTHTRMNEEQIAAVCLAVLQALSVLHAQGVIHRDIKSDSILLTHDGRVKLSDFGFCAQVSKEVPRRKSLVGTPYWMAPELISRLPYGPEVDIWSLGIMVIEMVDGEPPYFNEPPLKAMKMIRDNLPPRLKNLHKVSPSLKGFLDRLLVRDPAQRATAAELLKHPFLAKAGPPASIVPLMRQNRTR
T11 sequence (Q15303 26-1308): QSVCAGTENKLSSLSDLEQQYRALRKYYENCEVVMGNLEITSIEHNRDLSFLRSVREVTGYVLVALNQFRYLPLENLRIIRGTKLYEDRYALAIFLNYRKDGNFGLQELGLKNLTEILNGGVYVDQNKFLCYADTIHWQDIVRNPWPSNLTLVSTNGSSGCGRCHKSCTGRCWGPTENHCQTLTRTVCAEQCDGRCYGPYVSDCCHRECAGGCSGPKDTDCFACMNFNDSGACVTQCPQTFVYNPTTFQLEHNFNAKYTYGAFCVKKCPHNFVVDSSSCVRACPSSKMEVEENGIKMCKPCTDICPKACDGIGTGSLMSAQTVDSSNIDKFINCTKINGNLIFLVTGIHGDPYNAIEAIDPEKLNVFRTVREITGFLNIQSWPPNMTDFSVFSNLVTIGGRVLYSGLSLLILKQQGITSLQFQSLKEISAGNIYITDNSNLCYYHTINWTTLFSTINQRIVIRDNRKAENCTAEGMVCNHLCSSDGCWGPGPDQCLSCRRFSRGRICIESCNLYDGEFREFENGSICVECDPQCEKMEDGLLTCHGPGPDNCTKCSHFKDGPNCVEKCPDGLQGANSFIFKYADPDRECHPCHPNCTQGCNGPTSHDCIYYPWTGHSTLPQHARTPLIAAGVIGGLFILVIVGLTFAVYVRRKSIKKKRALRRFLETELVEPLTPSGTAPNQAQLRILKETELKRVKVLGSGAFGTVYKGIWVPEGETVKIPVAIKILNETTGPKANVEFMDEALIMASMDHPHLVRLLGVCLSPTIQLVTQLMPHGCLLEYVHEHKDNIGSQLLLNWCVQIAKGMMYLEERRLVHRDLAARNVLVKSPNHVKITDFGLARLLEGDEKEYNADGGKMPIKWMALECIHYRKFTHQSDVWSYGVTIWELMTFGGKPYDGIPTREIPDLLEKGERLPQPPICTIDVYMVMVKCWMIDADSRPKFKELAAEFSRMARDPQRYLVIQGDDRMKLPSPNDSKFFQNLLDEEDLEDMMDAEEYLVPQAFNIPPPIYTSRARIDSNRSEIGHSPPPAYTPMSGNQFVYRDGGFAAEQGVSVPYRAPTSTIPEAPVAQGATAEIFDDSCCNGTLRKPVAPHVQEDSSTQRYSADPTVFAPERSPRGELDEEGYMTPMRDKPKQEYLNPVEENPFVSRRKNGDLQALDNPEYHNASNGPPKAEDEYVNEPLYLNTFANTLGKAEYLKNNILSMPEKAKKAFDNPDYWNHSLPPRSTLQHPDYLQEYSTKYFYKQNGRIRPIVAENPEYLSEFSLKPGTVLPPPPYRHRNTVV
T8 sequence (Q9BXA7 whole entry): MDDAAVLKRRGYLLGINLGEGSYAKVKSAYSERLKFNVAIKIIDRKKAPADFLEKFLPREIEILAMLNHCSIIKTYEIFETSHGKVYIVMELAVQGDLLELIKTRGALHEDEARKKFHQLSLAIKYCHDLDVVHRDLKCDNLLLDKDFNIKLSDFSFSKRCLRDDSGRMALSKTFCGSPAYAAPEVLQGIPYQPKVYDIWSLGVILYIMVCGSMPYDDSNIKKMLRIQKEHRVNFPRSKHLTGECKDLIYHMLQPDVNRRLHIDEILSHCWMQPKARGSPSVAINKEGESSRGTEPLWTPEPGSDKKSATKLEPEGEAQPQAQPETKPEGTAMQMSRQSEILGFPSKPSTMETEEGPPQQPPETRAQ
T23 sequence (P07333 20-972): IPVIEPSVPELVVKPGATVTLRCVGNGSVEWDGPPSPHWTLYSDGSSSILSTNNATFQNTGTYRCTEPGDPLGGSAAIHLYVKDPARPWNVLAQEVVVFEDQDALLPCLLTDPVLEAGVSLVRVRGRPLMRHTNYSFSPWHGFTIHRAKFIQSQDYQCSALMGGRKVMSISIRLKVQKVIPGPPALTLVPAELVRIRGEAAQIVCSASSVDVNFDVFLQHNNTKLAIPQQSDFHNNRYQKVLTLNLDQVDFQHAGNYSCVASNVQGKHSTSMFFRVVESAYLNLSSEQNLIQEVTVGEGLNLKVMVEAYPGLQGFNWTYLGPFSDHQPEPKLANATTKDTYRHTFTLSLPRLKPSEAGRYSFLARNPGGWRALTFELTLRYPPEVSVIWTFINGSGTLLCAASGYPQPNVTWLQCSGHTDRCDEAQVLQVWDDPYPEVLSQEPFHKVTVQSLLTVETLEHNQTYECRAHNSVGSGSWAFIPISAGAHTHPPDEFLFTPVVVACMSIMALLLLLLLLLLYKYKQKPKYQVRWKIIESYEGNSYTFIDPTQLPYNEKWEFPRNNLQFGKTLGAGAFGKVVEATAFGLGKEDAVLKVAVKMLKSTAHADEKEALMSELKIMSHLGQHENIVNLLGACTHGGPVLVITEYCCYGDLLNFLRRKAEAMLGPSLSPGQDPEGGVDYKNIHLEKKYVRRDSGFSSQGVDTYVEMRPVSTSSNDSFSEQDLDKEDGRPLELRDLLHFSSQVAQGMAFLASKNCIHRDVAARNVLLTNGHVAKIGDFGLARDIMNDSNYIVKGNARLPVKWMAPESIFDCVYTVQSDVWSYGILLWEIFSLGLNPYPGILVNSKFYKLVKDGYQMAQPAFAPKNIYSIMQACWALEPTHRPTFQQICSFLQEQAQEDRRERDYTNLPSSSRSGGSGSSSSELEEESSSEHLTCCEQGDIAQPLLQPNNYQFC
T13 sequence (Q00536 whole entry): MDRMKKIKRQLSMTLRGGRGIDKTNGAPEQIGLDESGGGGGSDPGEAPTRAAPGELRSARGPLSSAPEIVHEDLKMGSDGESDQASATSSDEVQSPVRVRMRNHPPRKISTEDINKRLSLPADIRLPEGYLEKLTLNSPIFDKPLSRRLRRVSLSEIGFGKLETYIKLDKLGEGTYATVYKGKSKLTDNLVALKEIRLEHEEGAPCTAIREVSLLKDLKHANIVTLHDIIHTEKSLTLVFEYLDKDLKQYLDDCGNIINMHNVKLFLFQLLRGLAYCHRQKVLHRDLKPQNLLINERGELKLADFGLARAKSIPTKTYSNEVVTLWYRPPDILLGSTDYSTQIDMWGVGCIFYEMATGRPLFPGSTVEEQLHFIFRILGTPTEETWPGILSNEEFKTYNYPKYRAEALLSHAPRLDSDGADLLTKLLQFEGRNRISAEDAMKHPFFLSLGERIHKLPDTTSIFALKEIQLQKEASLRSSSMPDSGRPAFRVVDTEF
T27 sequence (P11309 whole entry): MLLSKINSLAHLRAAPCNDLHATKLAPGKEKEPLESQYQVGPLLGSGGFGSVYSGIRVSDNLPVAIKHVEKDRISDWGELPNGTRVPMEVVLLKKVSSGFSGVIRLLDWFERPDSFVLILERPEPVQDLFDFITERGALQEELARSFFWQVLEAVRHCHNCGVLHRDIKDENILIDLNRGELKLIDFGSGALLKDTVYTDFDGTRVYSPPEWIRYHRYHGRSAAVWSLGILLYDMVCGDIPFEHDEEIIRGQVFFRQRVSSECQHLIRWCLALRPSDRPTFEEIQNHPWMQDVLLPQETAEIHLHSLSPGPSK

What does the source list for `COc1ccc2c3ccnc(C)c3n(CCN(C)C)c2c1.O=C(O)/C=C/C(=O)O` [HTW_A_8 fumarate, 2-(7-methoxy-1-methyl-9H-pyrido[3,4-b]indol-9-yl)-N,N-dimethylethan-1-amine Fumarate Salt (2:3)]?
remaining binding at 10 µM [1]: 100%; remaining binding at 10 µM [2]: 88%; remaining binding at 10 µM [3]: 100%; remaining binding at 10 µM [4]: 79%; remaining binding at 10 µM [5]: 100%; remaining binding at 10 µM [6]: 84%; remaining binding at 10 µM [7]: 100%; remaining binding at 10 µM [8]: 100%; remaining binding at 10 µM [9]: 100%; remaining binding at 10 µM [10]: 81%; remaining binding at 10 µM [11]: 100%

Which “Percent Control” value [12] does the source give for `COc1ccc2c(c1)[nH]c1c(C)nccc12` [Harmine, harmine] here?
Its value is 94%.

And the “Percent Control” value [13]?
Its value is 100%.

What about the “Percent Control” value [14] of the same compound?
Its value is 96%.

What about the “Percent Control” value [15] of the same compound?
Its value is 80%.

And the “Percent Control” value [16]?
Its value is 83%.

And the “Percent Control” value [17]?
Its value is 91%.

And the “Percent Control” value [18]?
Its value is 96%.

What about the “Percent Control” value [19] of the same compound?
The value was 85%.

And the “Percent Control” value [20]?
Its value is 77%.

What about the “Percent Control” value [21] of the same compound?
The value was 88%.

And the “Percent Control” value [22]?
Its value is 92%.

And the “Percent Control” value [23]?
The value was 22%.

What about the “Percent Control” value [24] of the same compound?
Its value is 88%.

What about the “Percent Control” value [25] of the same compound?
The value was 71%.

What about the “Percent Control” value [26] of the same compound?
Its value is 21%.

What about the “Percent Control” value [27] of the same compound?
The value was 88%.

And the “Percent Control” value [28]?
Its value is 76%.

And the “Percent Control” value [29]?
Its value is 45%.

And the “Percent Control” value [30]?
Its value is 78%.

What about the “Percent Control” value [31] of the same compound?
Its value is 41%.

What about the “Percent Control” value [32] of the same compound?
Its value is 94%.

And the “Percent Control” value [33]?
Its value is 100%.

And the “Percent Control” value [34]?
The value was 99%.

And the “Percent Control” value [35]?
The value was 49%.

And the “Percent Control” value [36]?
Its value is 83%.

What about the “Percent Control” value [37] of the same compound?
Its value is 90%.

What about the “Percent Control” value [38] of the same compound?
The value was 85%.

And the “Percent Control” value [39]?
Its value is 81%.
